Reference: patent publication US8569288B2, “Thienotriazolodiazepine derivatives active on apo A” (CircoMed LLC, priority 2008, dated 2013)
Like-named read-outs stand apart in the source and are kept apart here.

Key:
[1] = target: platelet activating factor (PAF) (Homo sapiens, UniProt P25105); settings: known related thienotriazolodiazepine; cited from earlier work
[2] = system: apo A1 secretion in human hepatocytes; test: Apo A1 secretion by human hepatocytes (ELISA of supernatant, normalised to cell protein); type: cell-based; settings: for Apo A1 (ng secreted per mg cell protein), 1st / Apo A1 (ng secreted per mg cell protein), 2nd / Apo A1 (ng secreted per mg cell protein), mean: 3x24 h; for Apo A1 (ng secreted per mg cell protein), 1st: 1st parallel measurement; for Apo A1 (ng secreted per mg cell protein), 2nd: 2nd parallel measurement; for Apo A1 (ng secreted per mg cell protein), mean: mean of two measurements; for Stimulation of apo A1 secretion versus control level (in words): at concentrations as low as 3 μM, human hepatocytes
Method: Human hepatocytes were isolated from pieces of livers, obtained from donors which could not be used for transplantation, following the procedure described in U.S. Pat. No. 6,444,664. The cells were seeded on culture dishes at a density of 1.5×10^5 viable cells per cm^2 and were maintained for the first 24 h in 1.5 mL per 10 cm^2 of Williams E medium supplemented with 10% heat inactivated fetal calf serum (FCS), 2 mmol/L L-glutamine, 20 mU/mL insulin (135 nmol/L), 50 nmol/L dexamethasone, 100 U/mL penicillin, 100 μg/mL streptomycin and 100 μg/mL kanamycin at 37° C. in a 5% CO2/95% air atmosphere. After 14-16 h the non-adherent cells were washed from the plates, using the same culture medium as described above. 24 h after seeding, the incubations with the compounds were started in 1 mL of the same culture medium, but with an insulin concentration of 10 nmol/L instead of 135 nmol/L.
The human hepatocytes were treated with compounds 5, 6 and 7 (dissolved in DMSO, with the final concentration of DMSO not exceeding 0.1% v/v) at concentrations of 100 μM, 30 μM, 10 μM and 3 μM and incubated for 24 hours. The DMSO concentration in all samples and controls was 0.1%. The control wells contained DMSO (0.1% v/v) alone. The medium on the cells was removed and replaced with fresh medium with fresh compound and incubated for 24 hours. The medium was then again removed and replaced with fresh medium with fresh compound and incubated for another 24 hours. The supernatant was then removed from the cells and levels of apo A1 were determined using a commercially available ELISA (AlerCHEK™) with a HRP conjugated goat anti-apo A1 antibody and TMB/peroxidase substrate colour developer. Supernatants were diluted 1:4 with the wash buffer provided in the kit.
After the last incubation the cells were washed twice with PBS, and BCA (bicinchoninic acid) reagent was added to each well to assay total cellular protein according to standard methods.

[3] = system: central benzodiazepine receptor (BZD); test: Binding to central benzodiazepine receptor, [3H]flunitrazepam displacement on rat cerebral cortex membranes; settings: for % of control specific binding, 1st / % of control specific binding, 2nd / % of control specific binding, mean / IC50: 0.4 nM [3H]flunitrazepam
Method: Affinity of the compounds of the invention to the central benzodiazepine receptor (BZD) was measured by determining the binding of 0.4 nM [^3H]flunitrazepam to rat cerebral cortex membranes, and its displacement by compounds of the invention as compared to the reference ligand diazepam, at 4° C. for 60 min, as described by R. C. Speth et al., Life Sci. 24:351-358 (1979).
The specific binding to the receptors is defined as the difference between the total binding and the non-specific binding determined in the presence of an excess of unlabeled ligand (diazepam). The results are expressed as a percent of control specific binding ((measured specific binding/control specific binding)×100) obtained in the presence of compound 5, 6 and 7.
In each experiment, the respective reference compound was tested concurrently with compound 5, 6 and 7 in order to assess the assay suitability. It was tested at several concentrations (for IC50 value determination).

[4] = system: plasma apolipoprotein A1 (apo A1); settings: as described in U.S. Pat. No. 5,854,238; cited from earlier work

platelet activating factor (PAF), sequence (P25105 whole entry): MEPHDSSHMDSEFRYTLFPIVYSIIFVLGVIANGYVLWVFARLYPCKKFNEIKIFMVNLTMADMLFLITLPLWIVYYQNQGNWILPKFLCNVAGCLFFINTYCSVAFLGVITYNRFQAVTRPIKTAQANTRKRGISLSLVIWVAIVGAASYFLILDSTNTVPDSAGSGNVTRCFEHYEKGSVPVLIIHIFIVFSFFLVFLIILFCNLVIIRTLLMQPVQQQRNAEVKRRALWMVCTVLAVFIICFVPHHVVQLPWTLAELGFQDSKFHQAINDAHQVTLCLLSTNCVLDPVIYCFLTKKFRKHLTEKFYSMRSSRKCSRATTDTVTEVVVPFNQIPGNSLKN

| Compound | Apo A1 (ng secreted per mg cell protein), 1st ([2]; 3 μM) | Apo A1 (ng secreted per mg cell protein), 2nd ([2]; 3 μM) | Apo A1 (ng secreted per mg cell protein), mean ([2]; 3 μM) | Apo A1 (ng secreted per mg cell protein), 1st ([2]; 10 μM) | Apo A1 (ng secreted per mg cell protein), 2nd ([2]; 10 μM) | Apo A1 (ng secreted per mg cell protein), mean ([2]; 10 μM) | Apo A1 (ng secreted per mg cell protein), 1st ([2]; 30 μM) | Apo A1 (ng secreted per mg cell protein), 2nd ([2]; 30 μM) | Apo A1 (ng secreted per mg cell protein), mean ([2]; 30 μM) | Apo A1 (ng secreted per mg cell protein), 1st ([2]; 100 μM) | Apo A1 (ng secreted per mg cell protein), 2nd ([2]; 100 μM) | Apo A1 (ng secreted per mg cell protein), mean ([2]; 100 μM) | Stimulation of apo A1 secretion versus control level (in words) [2] | Affinity to the benzodiazepine receptor (in words) [3] | % of control specific binding, 1st ([3]; 10^−6 M) | % of control specific binding, 2nd ([3]; 10^−6 M) | % of control specific binding, mean ([3]; 10^−6 M) | % of control specific binding, 1st ([3]; 10^−7 M) | % of control specific binding, 2nd ([3]; 10^−7 M) | % of control specific binding, mean ([3]; 10^−7 M) | also measured |
| --- | --- | --- | --- | --- | --- | --- | --- | --- | --- | --- | --- | --- | --- | --- | --- | --- | --- | --- | --- | --- | --- |
| Cc1nnc2n1-c1sc(CCC(=O)N3CCOCC3)cc1C(c1ccccc1Cl)=NC2 [WEB2086] |  |  |  |  |  |  |  |  |  |  |  |  |  |  |  |  |  |  |  |  | PAF antagonistic activity (in words) [1]: platelet activating factor (PAF) antagonistic activity |
| Cc1nnc2n1-c1sccc1C(c1ccccc1)=NC2(C)C [compound 5, 6,6-Dimethyl-4-phenyl-9-methyl-6H-thieno[3,2f]-s-triazolo[4,3-a][1,4]diazepine] | 247 ng secreted per mg cell protein | 124 ng secreted per mg cell protein | 185 ng secreted per mg cell protein | 274 ng secreted per mg cell protein | 156 ng secreted per mg cell protein | 215 ng secreted per mg cell protein | 219 ng secreted per mg cell protein | 227 ng secreted per mg cell protein | 223 ng secreted per mg cell protein | 273 ng secreted per mg cell protein | 277 ng secreted per mg cell protein | 275 ng secreted per mg cell protein | stimulated secetion of apo A1 above the control level | no significant affinity | 90.0 % of control specific binding | 100.4 % of control specific binding | 95.2 % of control specific binding | 91.5 % of control specific binding | 96.7 % of control specific binding | 94.1 % of control specific binding | % of control specific binding, 1st ([3]; 10^−8 M): 102.0 % of control specific binding; % of control specific binding, 2nd ([3]; 10^−8 M): 94.3 % of control specific binding; % of control specific binding, mean ([3]; 10^−8 M): 98.2 % of control specific binding; % of control specific binding, 1st ([3]; 10^−9 M): 88.9 % of control specific binding; % of control specific binding, 2nd ([3]; 10^−9 M): 104.6 % of control specific binding; % of control specific binding, mean ([3]; 10^−9 M): 96.8 % of control specific binding |
| Cc1nnc2n1-c1sccc1C(c1ccc3c(c1)OCO3)=NC2 [compound 6, 4-(3′,4′-Methylenedioxyphenyl)-9-methyl-6H-thieno[3,2-f]-s-triazolo[4,3-a][1,4]diazepine] | 144 ng secreted per mg cell protein | 160 ng secreted per mg cell protein | 152 ng secreted per mg cell protein | 186 ng secreted per mg cell protein | 212 ng secreted per mg cell protein | 199 ng secreted per mg cell protein | 290 ng secreted per mg cell protein | 293 ng secreted per mg cell protein | 292 ng secreted per mg cell protein | 397 ng secreted per mg cell protein | 276 ng secreted per mg cell protein | 336 ng secreted per mg cell protein | stimulated secetion of apo A1 above the control level | no significant affinity | 88.7 % of control specific binding | 100.5 % of control specific binding | 94.6 % of control specific binding | 104.1 % of control specific binding | 101.3 % of control specific binding | 102.7 % of control specific binding | % of control specific binding, 1st ([3]; 10^−8 M): 92.7 % of control specific binding; % of control specific binding, 2nd ([3]; 10^−8 M): 91.0 % of control specific binding; % of control specific binding, mean ([3]; 10^−8 M): 91.9 % of control specific binding; % of control specific binding, 1st ([3]; 10^−9 M): 110.1 % of control specific binding; % of control specific binding, 2nd ([3]; 10^−9 M): 83.2 % of control specific binding; % of control specific binding, mean ([3]; 10^−9 M): 96.7 % of control specific binding |
| Cc1nnc2n1-c1sccc1C(c1ccccc1)=NC2 [compound 7, 9-Methyl-4-phenyl-6H-thieno[3,2-f]-s-triazolo[4,3-a][1,4]diazepine, reference compound] | 91 ng secreted per mg cell protein | 91 ng secreted per mg cell protein | 91 ng secreted per mg cell protein | 266 ng secreted per mg cell protein | 191 ng secreted per mg cell protein | 229 ng secreted per mg cell protein | 236 ng secreted per mg cell protein | 374 ng secreted per mg cell protein | 305 ng secreted per mg cell protein | 254 ng secreted per mg cell protein | 364 ng secreted per mg cell protein | 309 ng secreted per mg cell protein | clearly less active | moderate affinity | 18.9 % of control specific binding | 17.9 % of control specific binding | 18.4 % of control specific binding | 73.5 % of control specific binding | 68.0 % of control specific binding | 70.7 % of control specific binding | Activity in increasing plasma apo A1 (in words) [4]: active in increasing plasma apolipoprotein A1; IC50 ([3]; rat cerebral cortex membranes, read-out: IC50 of displacing the labelled ligand): ~500 nM; % of control specific binding, 1st ([3]; 10^−5 M): 2.3 % of control specific binding; % of control specific binding, 2nd ([3]; 10^−5 M): 1.8 % of control specific binding; % of control specific binding, mean ([3]; 10^−5 M): 2.1 % of control specific binding; % of control specific binding, 1st ([3]; 10^−8 M): 89.0 % of control specific binding; % of control specific binding, 2nd ([3]; 10^−8 M): 104.1 % of control specific binding; % of control specific binding, mean ([3]; 10^−8 M): 96.5 % of control specific binding |
| CN1C(=O)CN=C(c2ccccc2)c2cc(Cl)ccc21 [diazepam, reference compound] |  |  |  |  |  |  |  |  |  |  |  |  |  |  |  |  |  |  |  |  | IC50 ([3]; 4° C., 60 min, read-out: IC50 of reference ligand in BZD binding assay): 16 nM |
